Common to all, as to type: cell-based
Assay [1] addresses T1, CD₄ (Homo sapiens, UniProt P01730). The assay is described as follows: Percentage of CD4 still expressed in Molt 3 cells after incubation in the presence of BMS serum substitute. Set-up: percentage of CD₄ still expressed in the Molt 3 cells after incubation; endogenous in cells; host or cells: Molt 3 cells. The conditions noted are these: 60 minutes, 37°C, 89% without agent. As to the method:
Molt 3 cells (5x10⁶) were incubated with various concentrations of N-dichloroacetyl lyso GM₁ (from 1 µg/ml to 250 µg/ml) for 60 minutes at 37°C in the presence of BMS (BMS Serum Substitute, Biochrom. Kg. Seromed, Berlin, Germany). After incubation the percentage of CD₄ expressed was shown by a specific Mab for CD₄ (T₄ Coulter Clone, Coulter Electronics, Hialeah, Florida, USA). For a positive control, an experiment-was carried out with monosialoganglioside GM₁ under the same experimental conditions as reported for N-dichloroacetyl lyso GM₁.
Table 2 reports the percentage of CD₄ still expressed in the Molt 3 cells after incubation with different chemical molecules at different concentrations, as described in Example 1. The CD₄ expressed in the absence of the chemical agents during the experiment was 89%.

Assay [2] concerns the target T1, CD₄. As to the kind of experiment: Percentage of CD4 still expressed in Molt 3 cells after incubation in the presence of fetal calf serum. Set-up: percentage of CD₄ still expressed in the Molt 3 cells after incubation; endogenous in cells; host or cells: Molt 3 cells. Particulars: for percentage of CD₄ still expressed in the Molt 3 cells: 60 minutes, 37°C, 84% without agent; for effect of serum concentration on the modulating action on the CD₄ receptor: conclusion in words from Table 3, FCS 1% to 5%. How it is done:
Molt 3 cells (5x10⁶) were incubated with different concentrations of N-dichloroacetyl lyso GM₁ (from 1 µg/ml to 125 µg/ml) for 60 minutes at 37°C in the presence of different concentrations of fetal calf serum (FCS) (from 1% to 5%). After incubation the percentage of CD₄ expressed was shown by a specific Mab for CD₄ (T₄ Coulter Clone, Coulter Electronics, Hialeah, Florida, USA).
As a positive control, an experiment with the monosialoganglioside GM₁ was carried out under the same experimental conditions as reported for N-dichloroacetyl lyso GM₁.
The CD₄ expressed in the absence of the chemical agents during the experiment was 84%.

Assay [3] has as its target T1, CD₄. The assay is described as follows: Mean fluorescence intensity of human lymphocytes stained with anti CD4 Mab after incubation with the compound in the presence of serum. More on the design: endogenous in cells; host or cells: human lymphocytes. Particulars: for Mean fluorescence intensity (% of positive control): anti CD4 Mab, serum, 37°C, one hour. How it is done:
(§1) Human lymphocytes were incubated at various concentrations of the modified ganglioside N-dichloroacetyl lyso GM₁. The cells were stained using monoclonal antibodies (Mab) specific for CD₄, CD₈, CD₃ (T₄, T₈, T₃ Coulter Clone, Coulter Electronics, Hialeah, Florida, USA) and OKT₄ (Ortho Diagnostics, Raritan, New Jersey, USA), these monoclonal antibodies being coupled to fluorescein. By measuring the mean fluorescence intensity (MFI) of the labelled cell population at each concentration of N-dichloroacetyl lyso GM₁, it was possible to quantify how much N-dichloroacetyl lyso GM₁ is necessary to produce 50% inhibition of the fluorescence (I₅₀). The I₅₀ value for […] lymphocytes was 5 µM. The concentration of the composition of N-dichloroacetyl lyso GM₁ at which the fluorescence intensity measurement was 0% was resolved experimentally.
(§2) Specifically, human cells were incubated with saline solution at various concentrations of N-dichloroacetyl lyso GM₁ in the presence of serum at 37°C for one hour. The cells were then washed, incubated with suitable monoclonal antibodies, fixed with 1% formalin and analyzed by MFI after excitation at […] laser length.

A further assay relates to CD₃. As to the kind of experiment: Mean fluorescence intensity of human lymphocytes stained with anti CD3 Mab after incubation with the compound in the presence of serum. The conditions noted are these: 37°C, one hour. How it is done:
as §1, §2

pIC50: −log10 of the molar value.

Consider “monosialoganglioside GM₁ [GM1, reference compound]”, for which the “percentage of CD₄ still expressed in the Molt 3 cells” value (from here on “percentage of CD₄ still expressed”) at CD₄ [1] (1μg/ml) is 88%; at CD₄ [1] (5μg/ml), 81%; at CD₄ [1] (25μg/ml) it was 52%; at CD₄ [1] (125μg/ml) it was 0%; on CD₄ [2] (1μg/ml, FCS 1%), 82%; on CD₄ [2] (1μg/ml, FCS 2%), 84%. Also, the “percentage of CD₄ still expressed” value is listed as 85% at CD₄ [2] (1μg/ml, FCS 5%); 80% on CD₄ [2] (25μg/ml, FCS 1%); 83% on CD₄ [2] (25μg/ml, FCS 2%); 81% on CD₄ [2] (25μg/ml, FCS 5%); 50% at CD₄ [2] (75μg/ml, FCS 1%); 80% on CD₄ [2] (75μg/ml, FCS 2%). In addition, the “percentage of CD₄ still expressed” value at CD₄ [2] (75μg/ml, FCS 5%) turned out to be 83%; at CD₄ [2] (125μg/ml, FCS 1%), 10%; at CD₄ [2] (125μg/ml, FCS 2%), 25%; at CD₄ [2] (125μg/ml, FCS 5%), 72%. The “effect of serum concentration on the modulating action on the CD₄ receptor” value on CD₄ [2] is given as “this modulating action disappears in the presence of serum”.
For “N-dichloroacetyl lyso GM₁ [N-dichloroacetyl lyso GM1]”, the “Mean fluorescence intensity (% of positive control)” value is listed as 100 % of positive control at CD₄ [3] (2 μg/ml); 60 % of positive control at CD₄ [3] (5 μg/ml); 28 % of positive control at CD₄ [3] (10 μg/ml); 0 % of positive control on CD₄ [3] (25 μg/ml); 0 % of positive control at CD₄ [3] (50 μg/ml); 100 % of positive control with CD₃ (2 μg/ml). Moreover, the “Mean fluorescence intensity (% of positive control)” value in the assay on CD₃ (5 μg/ml, 60 min) was 100 % of positive control; in the assay on CD₃ (10 μg/ml, 60 min), 100 % of positive control; in the assay with CD₃ (25 μg/ml, 60 min), 100 % of positive control; with CD₃ (50 μg/ml), 100 % of positive control. Further, the “selectivity of modulation, CD₄ receptor versus CD₃ receptor” value on CD₄ [3] (conclusion in words from Table 1, 2 to 50 μg/ml) is recorded as “selectively modulates the CD₄ receptor without altering the CD₃ receptor”. Moreover, the pIC50 at CD₄ [3] (minor lymphocytes, fluorescein-coupled Mab, MFI, read-out: 50% inhibition of the fluorescence (I₅₀)) was 5.30. Further, the “percentage of CD₄ still expressed” value came to 75% at CD₄ [1] (1μg/ml); 74% at CD₄ [1] (5μg/ml); 47% on CD₄ [1] (25μg/ml); 13% on CD₄ [1] (125μg/ml); 70% on CD₄ [2] (1μg/ml, FCS 1%); 73% at CD₄ [2] (1μg/ml, FCS 2%). In addition, the “percentage of CD₄ still expressed” value at CD₄ [2] (1μg/ml, FCS 5%) is reported as 77%; on CD₄ [2] (25μg/ml, FCS 1%) it was 44%; on CD₄ [2] (25μg/ml, FCS 2%), 55%; at CD₄ [2] (25μg/ml, FCS 5%), 64%; at CD₄ [2] (75μg/ml, FCS 1%), 47%; at CD₄ [2] (75μg/ml, FCS 2%), 50%. In addition, the “percentage of CD₄ still expressed” value at CD₄ [2] (75μg/ml, FCS 5%) came out at 55%; at CD₄ [2] (125μg/ml, FCS 1%), 30%; on CD₄ [2] (125μg/ml, FCS 2%), 49%; on CD₄ [2] (125μg/ml, FCS 5%), 50%. Moreover, the “effect of serum concentration on the modulating action on the CD₄ receptor” value on CD₄ [2] was “increased serum concentrations do not alter its modulating action on the CD₄ receptor”.

(Values after patent EP0455560A2, “Use of N-dichloroacetyl lysogangliosides for the selective modulation of the expression and function of CD4 determinants on the cell surface” (FIDIA S.p.A., priority 1990, dated 1991).)
